Experimental findings from patent US4022842A, “Bibenzyl compounds” (Rikagaku Kenkyusho, priority 1972, dated 1977) are described below.

In one series the test system is oats coleoptile. The series can be described thus: Growth inhibition in oats coleoptile sections (Example 4, Table 1). On the set-up: species or system Avena sativa L. As to conditions: for IC50: Avena sativa. The method, then: A compound illustrated in Table 1 was dissolved in dimethylformamide and the solution was diluted to desired concentrations with water containing 2% of sucrose. In control test dimethylformamide was applied in the same amount as that of treated groups. This solvent gives no phytotoxicity to plants to be tested if the content in water is 1% or less. The prepared liquors were poured into culture dishes of 3 cm diameter, the amount of the medium poured into one dish being 2 ml. Sections of 5 mm in length cut from a coleoptiles of oats (Avena sativa L.) which have been grown in the dark were floated on the test media in the culture dishes and cultured at 25° C. for 20 hours in the dark to determine the growth-inhibition degrees.
In the control group, the coleoptile elongated by about 5 mm during the experiment.

The subject of the next series is lettuce seeds. The series can be described thus: Inhibition of germination of lettuce seeds, 50% inhibition (Example 5, Table 2). The class given is in vivo, Lactuca sativa L. As to conditions: 1% dimethylformamide; for IC50: Lactuca sativa, 48 h. As for the experimental part:
Every compound shown in Table 1 was respectively dissolved at various concentrations in distilled water containing 1% of dimethylformamide, and 3 ml each of the resulting solutions was poured into a culture dish of 6 cm diameter in which 2 filter papers were spread. About 100 seeds (non-dormant ware head seeds) of lettuce (Lactuca sativa L.) were shown in each dish, and they were allowed to stand at 23° C. in the dark for 2 days. Germination percentages were determined and plotted against the concentrations of the compound tested. From the graphs obtained the concentration to give 50% inhibition was determined. The definition of inhibition rate is given in the following formula: [formula] Usually the germination percentage of the untreated control lot was about 95%.

Series [1] relates to Bulbils of yam. The series can be described thus: Germination (sprouting) of yam bulbils awakened from dormancy (Example 6, Table 3). It counts as in vivo, Dioscorea batatas Decne. As to conditions: 300 μg/ml; 23° C., light of 1800 luxes, 2 weeks; untreated control 80. As for the experimental part: Bulbils (fleshy buds for breeding formed on stems) of yam (Dioscorea batatas Decne.) were stored at a low temperature of 5° C. for 3 months and awakened from hibernation. These fleshy buds were treated with the agricultural chemical of this invention in the following manner to lead them to hibernation again.
Every active ingredient compound of this invention shown in the following Table 3 was dissolved emulsified in distilled water containing 1% of dimethylformamide and 0.05% of Tween 20. 25 ml of the resulting liquor was poured into a culture dish of 9 cm diameter in which absorbent cotton was spread, and 30 of bulbis which had been subjected to the above low temperature treatment and awakened from dormancy were sown on the dish and they were allowed to sprout at 23° C. under light of 1800 luxes for 2 weeks.

A further series can be described thus: Solubility. It counts as physicochemical.
Series [2] has as its system bulbils of yam. The experiment in a line: Sprouting of yam bulbils in dark or light (Example 7, Table 4). The class given is in vivo, Discorea batatas Decne. To be noted: 23° C., 20 days. As for the experimental part:
4-Hydroxy-2,6,7-trimethoxyphenanthrene and 3,3'-dihydroxy-5-methoxybibenzylwere respectively dissolved at various concentrations in water containing 0.05% of Tween 20, and 30 ml each of the resulting solutions were poured into culture dishes of 9 cm in diameter containing 1 g of absorbent cotton.
Thirty bulbils of yam (Discorea batatas Decne.) which had been awakened from dormancy were planted in each of the so arranged culture dishes, and the germination test was carried out at 23° C. either in the dark or in the light. […]

The subject of a further series is seeds of a lettuce. The experiment in a line: Germination ratio of lettuce seeds (Example 8, Table 5). It counts as in vivo, Lactuca sativa L. To be noted: for Germination Ratio: 23° C., 2 days, untreated control 90. As for the experimental part: 4-Hydroxy-2,6,7-trimethoxyphenanthrene and 3,3'-dihydroxy-5-methoxybibenzylwere respectively dissolved in water containing 0.05% of Tween 20 and 1% of dimethylformamide, and each of the resulting solution was poured into a culture dish, 6 cm in diameter, in which 2 layers of filter paper were spread to form a germination bed. 100 seeds of a lettuce (Lactuca sativa L.) were sown on the germination bed and cultivation was conducted for 2 days at 23° C. […] [formula]

In another series the test system is oats coleoptiles. The experiment in a line: Growth inhibition of oats coleoptile pieces with indoleacetic acid (Example 9, Table 6). More on the design: species or system Avena sativa L. To be noted: Avena sativa, 18 h, read-out: Growth Inhibition ratio. The method, then:
Oats (Avena sativa L.) were allowed to germinate under a weak red light at 25° C. and 3 days after germination sections of […] in length were cut from coleoptiles about 25 mm in length. 4-Hydroxy-2,6,7-trimethoxyphenanthrene or 3,3-dihydroxy-5-methoxybibenzyl was dissolved in a culture medium comprising 0.1 mg/l of indoleacetic acid, 0.05% of Tween 20 and 2% of sucrose, the balance being water. Ten of the above cut-out coleoptile pieces were flated on the resulting culture medium and cultivation was conducted at 25° C. for 18 hours to examine the growth state and the results shown in Table 6 were obtained.

For another series, the system named is Seedings of lettuce. The experiment in a line: Growth inhibition of lettuce seedling stems (hypocotyls) (Example 10, Table 7). As to conditions: Lactuca sativa, 72 h, read-out: Growth Inhibition Ratio. The class given is in vivo, Lactuca sativa L. As for the experimental part:
4-Hydroxy-2,6,7-trimethoxyphenanthrene or 3,3'-dihydroxy-5-methoxybibenzyl was dissolved in acetone, and the resulting solution was placed in culture dishes in which 2 layers of filter paper were spread so as to give required amounts of the test compound. After the acetone was removed by evaporation, Hoagland's nutrient solution containing 0.05% of Tween 20 was poured into the culture dishes. Seedings of lettuce (Lactuca sativa L.), which had been germinated in a different place, were transplanted to the culture dishes and cultivation was carried out in a light place at 23° C. for 3 days. Then, the lengths of the stems (hypocotyls) were measured to determined the growth inhibition ratio.

The mark [3] stands for this setting: 5 mm sections, 25° C., 20 hours, dark, read-out: Growth Inhibition in oats coleoptile (concentration giving 50% inhibition).
[4] abbreviates: 23° C., dark, 2 days, read-out: Inhibition of Germination of Lettuce Seeds, Concentration Giving 50% Inhibition.
The mark [5] stands for this setting: 20 h, read-out: Growth Inhibition in oats coleoptile (concentration giving 50% inhibition), 5 mm sections, 25° C., 20 hours, dark.
Where [6] appears, read: read-out: Inhibition of Germination of Lettuce Seeds, Concentration Giving 50% Inhibition, 23° C., dark, 2 days.

Structures are written as SMILES. ≈ marks a conversion by molar mass, not a printed value. Read-outs that look alike come from different tables or passages of the source.

For `CC(=O)c1cc(CCc2ccccc2)c(O)cc1O` [Compound 4, 4,6-dihydroxy-3-acetyldibenzyl], the IC50 in the series on oats coleoptile (setting [3]) and in the series on lettuce seeds (setting [4]) was 90 µg/mL (≈ 351 µM) each time. The “Germination Ratio” value in the series on Bulbils of yam [1] was found to be 63%.
For `COc1cc2ccc3cc(O)c(O)cc3c2c(O)c1OC` [Compound 12, 4,6,7-trihydroxy-2,3-dimethoxyphenanthrene], the IC50 in the series with oats coleoptile (setting [5]) is 120 µg/mL (≈ 419 µM); in the series with lettuce seeds (setting [6]), 140 µg/mL (≈ 489 µM).
On to `COc1cc(CCc2ccc(O)cc2)cc(O)c1OC` [Compound 3, 3,4'-dihydroxy-4,5-dimethoxybibenzyl], for which the IC50 with oats coleoptile (setting [3]) stood at 150 µg/mL (≈ 547 µM); with lettuce seeds (setting [4]), 120 µg/mL (≈ 437 µM). For the same molecule, in the series with Bulbils of yam [1], the “Germination Ratio” value is recorded as 42%.
Turning to `COc1cc(O)cc(CCc2ccccc2)c1` [Compound 1, 3-hydroxy-5-methoxybibenzyl], the IC50 with oats coleoptile (setting [3]) worked out at 80 µg/mL (≈ 350 µM); in the series with lettuce seeds (setting [4]) it was 60 µg/mL (≈ 263 µM).
As for `COc1cc(OC)c2c(ccc3ccc(O)cc32)c1` [Compound 13, 2,4-dimethoxy-6-hydroxyphenanthrene], the “Growth Inhibition in oats coleoptile (concentration giving 50% inhibition)” value in the series on oats coleoptile (5 mm sections, 25° C., 20 hours, dark) was 90 µg/mL. Further, the “Inhibition of Germination of Lettuce Seeds, Concentration Giving 50% Inhibition” value with lettuce seeds (23° C., dark, 2 days) worked out at 80 µg/mL. Besides, in the series with Bulbils of yam [1], the “Germination Ratio” value is recorded as 60%.
For the molecule `COc1cc(OC)c2c(ccc3ccc(O)cc32)c1` [Compound 9, 2,4-dimethoxy-6-hydroxyphenanthrene], the figures for the IC50 in the series on oats coleoptile (setting [5]) and with lettuce seeds (setting [6]) were 130 µg/mL (≈ 511 µM) and 100 µg/mL (≈ 393 µM), respectively.
For `COc1cc(CCc2ccccc2O)c(O)c(OC)c1` [Compound 2, 2,2'-dihydroxy-3,5-dimethoxybibenzyl], the IC50 in the series with oats coleoptile (setting [3]) and in the series with lettuce seeds (setting [4]) was 100 µg/mL (≈ 365 µM) in each case. In addition, the “Solubility in ordinary solvents” value in the series “Solubility” (ethanol, acetone, ethyl acetate and ether) is reported as “Soluble”. Moreover, the Solubility in hexane entry in the series “Solubility” (hexane) is reported as “insoluble”. The Solubility in water result in “Solubility” (water) is “insoluble”.
In the case of `COc1cc2ccc3cc(O)c(OC)c(OC)c3c2cc1O` [Compound 11, 2,6-dihydroxy-3,4,7-trimethoxyphenanthrene], the IC50 in the series with oats coleoptile (setting [3]) and in the series on lettuce seeds (setting [4]) was 100 µg/mL (≈ 333 µM) each time. The “Germination Ratio” value with Bulbils of yam [1] is reported as 50%.
As to `Oc1ccc(CCc2ccccc2)c(O)c1` [Compound 5, 2,4-dihydroxybibenzyl], the IC50 came out at 110 µg/mL (≈ 513 µM) with oats coleoptile (setting [3]) and 90 µg/mL (≈ 420 µM) with lettuce seeds (setting [4]).
In the case of `COc1cc2c(cc1O)CCc1cc(OC)c(OC)c(O)c1-2` [Compound 17, 4,7-dihydroxy-2,3,6-trimethoxy-9,10-dihydrophenanthrene], the IC50 came to 200 µg/mL (≈ 662 µM) in the series on oats coleoptile (setting [3]) and 120 µg/mL (≈ 397 µM) in the series on lettuce seeds (setting [4]). For the same molecule, the “Germination Ratio” value in the series on Bulbils of yam [1] stood at 40%.
On to `COc1ccc(CCc2cc(O)cc(O)c2)cc1O` [Compound 7, 3,3',5'-trihydroxy-4-methoxybibenzyl], for which the IC50 in the series on oats coleoptile (setting [3]) and in the series with lettuce seeds (setting [4]) was 75 µg/mL (≈ 288 µM) throughout.
Regarding `COc1cc(O)c2c(c1)CCc1cc(O)c(OC)cc1-2` [Compound 18, 4,7-dihydroxy-2,6-dimethoxy-9,10-dihydrophenanthrene], the results for the IC50 with oats coleoptile (setting [3]) and in the series with lettuce seeds (setting [4]) were 180 µg/mL (≈ 661 µM) and 160 µg/mL (≈ 588 µM), respectively.
Consider `Oc1cc(O)c2c(c1)CCc1cc(O)c(O)cc1-2` [Compound 16, 2,3,5,7-tetrahydroxy-9,10-dihydrophenanthrene], for which the IC50 in the series on oats coleoptile (setting [3]) is 150 µg/mL (≈ 614 µM); in the series on lettuce seeds (setting [4]), 160 µg/mL (≈ 655 µM).
Take `CC(=O)c1cc2ccccc2c2cc(Cl)ccc12` [Compound 14, 6-chloro-9-acetylphenanthrene]: the figures for the IC50 in the series with oats coleoptile (setting [5]) and in the series with lettuce seeds (setting [6]) were 70 µg/mL (≈ 275 µM) and 30 µg/mL (≈ 118 µM), respectively. For the same molecule, the “Germination Ratio” value with Bulbils of yam [1] was determined as 70%.
As to `COc1cc(O)c2c(ccc3cc(OC)c(OC)cc32)c1` [Compound 10, 4-hydroxy-2,6,7-trimethoxyphenanthrene], the IC50 in the series with oats coleoptile (setting [5]) was 90 µg/mL (≈ 317 µM); with lettuce seeds (setting [6]), 60 µg/mL (≈ 211 µM). Also, the “Germination Ratio” value in the series on Bulbils of yam [1] amounted to 45%; with seeds of a lettuce (30 mg/l) it was 78%; with seeds of a lettuce (100 mg/l), 43%; in the series with seeds of a lettuce (300 mg/l) it was 10%. Further, the “Sprouting Ratio” value was determined as 46% with bulbils of yam [2] (100 mg/l, dark place, untreated control 56); 14% with bulbils of yam [2] (100 mg/l, light place, untreated control 44); 30% with bulbils of yam [2] (300 mg/l, dark place, untreated control 56); 8% with bulbils of yam [2] (300 mg/l, light place, untreated control 44); 23% in the series on bulbils of yam [2] (1000 mg/l, dark place, untreated control 56). In addition, the “Blight of germination-inhibited seeds” value in the series with seeds of a lettuce (after treatment) was “not blighted”. The “Germination after washing and transplanting” value in the series on seeds of a lettuce (washed with water, transplanted on culture dish free of compound) is on record as “complete germination”. Besides, the results for the inhibition at 30 µg/mL in the series on oats coleoptiles and in the series with Seedings of lettuce were 16% and 13%, respectively. For the same molecule, the inhibition at 100 µg/mL in the series with oats coleoptiles amounted to 44%; in the series with Seedings of lettuce, 45%. In addition, the inhibition at 300 µg/mL was determined as 79% in the series with oats coleoptiles and 72% in the series on Seedings of lettuce.
Turning to `Oc1c(Cl)cc(Cl)cc1CCc1cc(Cl)cc(Cl)c1O` [Compound 6, 3,5,3',5'-tetrachloro-2,2'-dihydroxybibenzyl], the values for the IC50 in the series with oats coleoptile (setting [3]) and in the series on lettuce seeds (setting [4]) were 30 µg/mL (≈ 85.2 µM) and 10 µg/mL (≈ 28.4 µM), respectively. Also, the “Germination Ratio” value in the series with Bulbils of yam [1] is 15%.
In the case of `CC(=O)c1ccc2c(c1)CCc1cc(O)c(C(C)=O)cc1-2` [Compound 15, 7-hydroxy-2,6-diacetyl-9,10-dihydrophenanthrene], the IC50 with oats coleoptile (setting [3]) is 130 µg/mL (≈ 464 µM); with lettuce seeds (setting [4]), 80 µg/mL (≈ 285 µM).
